Reference: patent publication US20250230226A1, “PLXDC1/PLXDC2 ACTIVATORS AND THEIR USE IN THE TREATMENT OF BLOOD VESSEL DISORDERS” (THE REGENTS OF THE UNIVERSITY OF CALIFORNIA, priority 2019, published 2025)

Tests used:
[1] = test system: LL/2 lung cancer tumor endothelial cells; test: Lung LL2 ex vivo model of tumor angiogenesis; format: cell-based, mouse; settings: 20 μm
Outline: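 LL2 mouse tumor fragments (~0.075 mm³) embedded in Matrigel and cultured in endothelial growth medium at 37 °C until endothelial outgrowth (~4 days) before treatment. Cell death assessed e.g. 48 h after drug by fluorescein diacetate (live)/propidium iodide (dead) staining and red/green fluorescence imaging.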

[2] = target: T1, PLXDC2 (Homo sapiens, UniProt Q6UX71); test: Gfi1b promotor luciferase receptor activation assay, PLXDC2-expressing cells (FIG. 18B); format: cell-based; settings: compound treatments 1 day
T1 construct: host or cells: PLXDC2-expressing cells
T1 sequence (Q6UX71 31-529): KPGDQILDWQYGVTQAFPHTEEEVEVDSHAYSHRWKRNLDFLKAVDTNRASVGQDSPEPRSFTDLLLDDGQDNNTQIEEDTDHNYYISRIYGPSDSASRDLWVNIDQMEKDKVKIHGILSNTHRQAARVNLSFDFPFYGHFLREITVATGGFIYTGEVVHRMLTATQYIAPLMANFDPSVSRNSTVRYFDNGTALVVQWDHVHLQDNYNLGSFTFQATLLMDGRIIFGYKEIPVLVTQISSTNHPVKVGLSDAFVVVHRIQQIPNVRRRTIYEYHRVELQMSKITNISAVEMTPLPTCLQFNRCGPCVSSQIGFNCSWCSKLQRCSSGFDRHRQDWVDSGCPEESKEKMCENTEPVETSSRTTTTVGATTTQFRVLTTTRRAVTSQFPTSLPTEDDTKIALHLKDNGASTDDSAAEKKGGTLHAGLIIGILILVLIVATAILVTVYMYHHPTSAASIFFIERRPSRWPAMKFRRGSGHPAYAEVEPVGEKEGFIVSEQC
Description: FIG. 18A-B show activation of PLXDC1 and PLXDC2 by small molecules. […] All compound treatments were done for 1 day. Basal promotor activity of the PLXDC1-expressing cells is defined as 1.
By linking its promotor to a luciferase reporter gene, this example developed a PLXDC1 receptor activation assay.

[3] = test system: pathogenic blood vessels; test: Ischemia-induced retinopathy in vivo (FIG. 22); set-up: species or system mice; settings: subcutaneous injection during return to room air; n=10 retinas
Description: A. Upper graph: Schematic diagram of the experimental design for ischemia-induced retinopathy. The high oxygen environment caused blood vessel loss (vaso-obliteration). In room air, loss of vessels triggered abnormal angiogenesis that generated pathogenic blood vessels on the top of the retina (marked in yellow in D). Treatment was applied during the return to room air by subcutaneous injection. Lower graph: quantitation of healthy blood vessels, vaso-obliteration and pathogenic blood vessels between the control (n=10) and treated retinas (n=10). […] B. Representative images of flat-mounted control retinas (upper two images) and retinas from compound treated mice (lower two images). Red signal is blood vessel marker. C. The same retinas in B with vaso-obliteration areas marked in white color. These images illustrate that compound-treated retinas went through vaso-obliteration like the control retinas. D. The same retinas in B with pathogenic blood vessels marked in yellow color.
FIG. 22A includes a schematic diagram of the experimental design for ischemia-induced retinopathy. The high oxygen environment caused blood vessel loss (vaso-obliteration). In room air, loss of vessels triggered abnormal angiogenesis that generated pathogenic blood vessels on the top of the retina (marked in yellow in FIG. 22D). Treatment was applied during the return to room air by subcutaneous injection. […]

CCCCCCCCCCCCCCOc1ccc(S(=O)(=O)c2cnc3ccc([S+](C)[O-])cc3c2N2CCC(N3CCC(N4CCN(C)CC4)CC3)CC2)cc1 (centres unmarked) [Compound 346]
48 hrs (morphology observations) ([1]; 48 hours, LL/2 tumor endothelial cells): * (50% or less of cells vesicularize in cell shape)
Cell death ([1]; drug treatment for two days, ratio of red area to total endothelial cell area): 20%
Gfi1b promotor activity in PLXDC2-expressing cells [2]: activated the promotor activity in PLXDC2-expressing cells
Healthy blood vessels [3]: improving the amount of healthy blood vessels
Pathogenic blood vessels [3]: highly suppressed pathogenic blood vessels
